{
  "source": "patent US6455587B1",
  "about": "(priority 2000, dated 2002)",
  "data": [
    {"biological_target": "T1, recombinant HIV-1 protease (Human immunodeficiency virus type 1 group M subtype B, UniProt P04585)", "T1 construct": "recombinant HIV-1 protease (final concentration 2.18 nM) purchased from Bachem Bioscience; purchased Bachem Bioscience", "assay": "Enzymatic fluorometric (FRET) assay for determining the inhibition constant (Ki) against HIV protease", "type": "biochemical", "settings": "Ki (nM)", "excerpt": "(§1) An Enzymatic assay for determining the inhibition constant (Ki) of synthetic compounds targeting the HIV protease may be carried out as follows: This is a fluorometric assay based on the cleavage by protease of a substrate carrying a donor group (EDANS) and an acceptor group (DABCYL) on each side of the cleavage site, interacting together through fluorescence resonance energy transfer (FRET). Cleavage of the substrate by protease stops energy exchange between the two groups, resulting in a time-dependent increase in fluorescence intensity that is linearly related to the extent of substrate hydrolysis.\n(§2) The enzymatic assay is done at 31° C. in white 96-well fluorescence microplates, in a total volume of 200 μL per well. The apparatus used for analysis is a FL600 fluorescence microplate reader (Biotek Instruments). […] Excitation of the fluorophore is done at 340 nm and emission at 485 nm is recorded continuously during the reaction, allowing determination of the enzyme's initial velocity (v0). At the end of the 4 min incubation, the potential inhibitor at a defined concentration in a volume of 4 μL is added to the reaction, and fluorescence readings are taken for another 4 min, allowing determination of enzyme velocity (vi) in the presence of the inhibitory compound. Several concentrations of the putative inhibitors are tested in the assay. After calculation of v0 and vi, the inhibition constant (Ki) of the compound is determined using the equation of Henderson: [formula]\n(§3) and [I]=inhibitor concentration, [S]=substrate concentration,\n(§4) Km=Michaelis-Menten constant, Kiapp=apparent Ki\n(§5) Graphs are traced and the Ki determined using GraphPad Prism software v. 3.0.", "units": {"Ki": "nM"}, "values": [
      {"smiles": "Cc1ccc(S(=O)(=O)N(CC(C)C)[C@@H](CCCCNC(=O)OCC2c3ccccc3-c3ccccc32)C(=O)O)cc1", "note": "[Compound 67, Nα-Isobutyl-Nα-(4-methylbenzenesulfonyl)-Nε-(9-fluorenylmethoxycarbonyl)-L-lysine]", "Ki": 4.3},
      {"smiles": "CC(C)CN(C(CCCCNC(=O)OCc1ccccc1)C(=O)O)S(=O)(=O)c1ccc(Br)cc1", "note": "(stereo not drawn) [Compound 67]", "Ki": "> 100"},
      {"smiles": "O=C(NCCCC[C@H](NC(=O)OCC1c2ccccc2-c2ccccc21)C(=O)O)OCC1c2ccccc2-c2ccccc21", "note": "[Compound 71, Nα,Nε-di-(9-Fluorenylmethoxycarbonyl)-L-lysine]", "Ki": 44800}
    ]},
    {"biological_target": "T1, recombinant HIV-1 protease", "assay": "Enzymatic fluorometric (FRET) assay for determining the inhibition constant (Ki) against HIV protease", "type": "biochemical", "settings": "Ki (nM), fluorometric FRET assay, recombinant HIV-1 protease, pH 4.7, 31° C.", "excerpt": "as §1, §2, §3, §4, §5", "units": {"Ki": "nM"}, "values": [
      {"smiles": "CC(C)CN([C@@H](CCCCNC(=O)C=Cc1cccc([N+](=O)[O-])c1)C(=O)O)S(=O)(=O)c1ccc([N+](=O)[O-])cc1", "note": "[Compound 108, Nα-Isobutyl-Nα-(4-nitrobenzenesulfonyl)-Nε-(3-nitrocinnamoyl)-L-lysine]", "Ki": "> 300"},
      {"smiles": "CC(C)CN([C@@H](CCCCNC(=O)C=Cc1ccccc1[N+](=O)[O-])C(=O)O)S(=O)(=O)c1ccc([N+](=O)[O-])cc1", "note": "[Compound 109, Nα-Isobutyl-Nα-(4-nitrobenzenesulfonyl)-Nε-(2-nitrocinnamoyl)-L-lysine]", "Ki": "> 300"},
      {"smiles": "CC(C)CN([C@@H](CCCCNC(=O)C=Cc1ccc([N+](=O)[O-])cc1)C(=O)O)S(=O)(=O)c1ccc([N+](=O)[O-])cc1", "note": "[Compound 111, Nα-Isobutyl-Nα-(4-nitrobenzenesulfonyl)-Nε-(4-nitrocinnamoyl)-L-lysine]", "Ki": 34.4},
      {"smiles": "CC(C)CN([C@@H](CCCCNS(=O)(=O)c1ccc([N+](=O)[O-])cc1)C(=O)O)S(=O)(=O)c1ccc([N+](=O)[O-])cc1", "note": "[Compound 116, Nα-Isobutyl-Nα,Nε-di-(4-nitrobenzenesulfonyl)-L-lysine]", "Ki": "> 300"}
    ]},
    {"biological_target": "T1, recombinant HIV-1 protease", "assay": "Enzymatic fluorometric (FRET) assay for determining the inhibition constant (Ki) against HIV protease", "type": "biochemical", "settings": "fluorometric FRET assay, recombinant HIV-1 protease, pH 4.7, 31° C.; read-out: Ki", "excerpt": "as §1, §2, §3, §4, §5", "units": {"Ki": "nM"}, "values": [
      {"smiles": "O=C(N[C@@H](CCCCNS(=O)(=O)c1ccc(Br)cc1)C(=O)O)c1ccccc1", "note": "[Compound 65, Nα-Benzoyl-Nε-(4-bromobenzenesulfonyl)-L-lysine]", "Ki": "> 50000"},
      {"smiles": "O=C(NCCCC[C@H](NS(=O)(=O)c1ccc(Br)cc1)C(=O)O)OCC1c2ccccc2-c2ccccc21", "note": "[Compound 66, Nα-(4-Bromobenzenesulfonyl)-Nε-(9-fluorenylmethoxycarbonyl)-L-lysine]", "Ki": 1900},
      {"smiles": "Nc1ccc(S(=O)(=O)NCCC[C@H](NC(=O)OCC2c3ccccc3-c3ccccc32)C(=O)O)cc1", "note": "[Compound 69, Nδ-(4-Aminobenzenesulfonyl)-Nα-(9-fluorenylmethoxycarbonyl)-L-ornithine]", "Ki": 23800},
      {"smiles": "O=C(NCCCC[C@H](NS(=O)(=O)c1ccc(Cl)cc1)C(=O)O)OCC1c2ccccc2-c2ccccc21", "note": "[Compound 72, Nα-(4-Chlorobenzenesulfonyl)-Nε-(9-fluorenylmethoxycarbonyl)-L-lysine]", "Ki": 2380},
      {"smiles": "O=C(NCCC[C@H](NC(=O)OCC1c2ccccc2-c2ccccc21)C(=O)O)OCC1c2ccccc2-c2ccccc21", "note": "[Compound 73, Nα,Nδ-di-(9-Fluorenylmethoxycarbonyl)-L-ornithine]", "Ki": 1300},
      {"smiles": "Cc1ccc(S(=O)(=O)N(CC(C)C)[C@@H](CCCCNC(=O)OCc2ccccc2)C(=O)OCc2ccccc2)cc1", "note": "[Compound 75, Nα-isobutyl-Nα-(4-methylbenzenesulfonyl)-Nε-benzyloxycarbonyl-L-lysine Benzyl Ester]", "Ki": "> 1250"},
      {"smiles": "CC(C)CN(C(CCCCNC(=O)OCc1ccccc1)C(=O)OCc1ccccc1)S(=O)(=O)C=Cc1ccccc1", "note": "(stereo not drawn) [Compound 76]", "Ki": "> 1250"},
      {"smiles": "CC(C)CN([C@@H](CCCCNC(=O)OCc1ccccc1)C(=O)OCc1ccccc1)S(=O)(=O)c1ccc([N+](=O)[O-])cc1", "note": "[Compound 78, Nα-Isobutyl-Nα-(4-nitrobenzenesulfonyl)-Nε-benzyloxycarbonyl-L-lysine Benzyl Ester]", "Ki": "> 1250"},
      {"smiles": "CCC(CC)CN([C@@H](CCCCNC(=O)OCc1ccccc1)C(=O)OCc1ccccc1)S(=O)(=O)c1ccc(C)cc1", "note": "[Compound 80]", "Ki": "> 1250"},
      {"smiles": "Cc1ccc(S(=O)(=O)N(CC(C)C)C(CCCCNC(=O)C2c3ccccc3-c3ccccc32)C(=O)O)cc1", "note": "(stereo not drawn) [Compound 83]", "Ki": 105},
      {"smiles": "Cc1ccc(S(=O)(=O)N(CC(C)C)C(CCCCNC(=O)CC2c3ccccc3-c3ccccc32)C(=O)O)cc1", "note": "(stereo not drawn) [Compound 84]", "Ki": 89.7},
      {"smiles": "Cc1ccc(S(=O)(=O)N(CC(C)C)[C@@H](CCCCNC(=O)C2c3ccccc3Oc3ccccc32)C(=O)O)cc1", "note": "[Compound 85]", "Ki": 14.5},
      {"smiles": "Cc1ccc(S(=O)(=O)N(CC(C)C)[C@@H](CCCCNC(=O)C(c2ccccc2)c2ccccc2)C(=O)O)cc1", "note": "[Compound 86]", "Ki": 171},
      {"smiles": "Cc1ccc(S(=O)(=O)N(CC(C)C)[C@@H](CCCCNC(=O)c2c[nH]c3ccccc23)C(=O)O)cc1", "note": "[Compound 87]", "Ki": "> 1250"},
      {"smiles": "Cc1ccc(S(=O)(=O)N(CC(C)C)C(CCCCNC(=O)c2cc3ccccc3[nH]2)C(=O)O)cc1", "note": "(stereo not drawn) [Compound 88]", "Ki": "> 625"},
      {"smiles": "Cc1ccc(S(=O)(=O)N(CC(C)C)[C@@H](CCCCNC(=O)CCc2c[nH]c3ccccc23)C(=O)O)cc1", "note": "[Compound 89]", "Ki": 6.9},
      {"smiles": "Cc1ccc(S(=O)(=O)N(CC(C)C)[C@@H](CCCCNC(=O)/C=C/c2ccccc2)C(=O)O)cc1", "note": "[Compound 90]", "Ki": 747},
      {"smiles": "Cc1ccc(S(=O)(=O)N(CC(C)C)[C@@H](CCCCNC(=O)CCc2ccccc2)C(=O)O)cc1", "note": "[Compound 91]", "Ki": 8},
      {"smiles": "CC(C)CN([C@@H](CCCCNC(=O)CCc1ccccc1)C(=O)O)S(=O)(=O)c1ccc([N+](=O)[O-])cc1", "note": "[Compound 94, Nα-Isobutyl-Nα-(4-nitrobenzenesulfonyl)-Nε-dihydrocinnamoyl-L-lysine]", "Ki": 33.9},
      {"smiles": "CC(C)CN([C@@H](CCCCNC(=O)CCc1c[nH]c2ccccc12)C(=O)O)S(=O)(=O)c1ccc([N+](=O)[O-])cc1", "note": "[Compound 95, Nα-Isobutyl-Nα-(4-nitrobenzenesulfonyl)-Nε-(3-indolepropionyl)-L-lysine]", "Ki": 33.4},
      {"smiles": "CC(C)CN([C@@H](CCCCNC(=O)C1c2ccccc2Oc2ccccc21)C(=O)O)S(=O)(=O)c1ccc([N+](=O)[O-])cc1", "note": "[Compound 96, Nα-Isobutyl-Nα-(4-nitrobenzenesulfonyl)-Nε-(9-xanthenecarbonyl)-L-lysine]", "Ki": 43.9},
      {"smiles": "CC(C)CN([C@@H](CCCCNC(=O)CCc1c[nH]c2ccccc12)C(=O)O)S(=O)(=O)c1ccc(N)cc1", "note": "[Compound 98, Nα-Isobutyl-Nα-(4-aminobenzenesulfonyl)-Nε-(3-indolepropionyl)-L-lysine]", "Ki": 10.1},
      {"smiles": "O=C(NCCCC[C@H](NS(=O)(=O)c1cccc2ccccc12)C(=O)O)OCC1c2ccccc2-c2ccccc21", "note": "[Compound 102, Nα-(1-Naphthalenesulfonyl)-Nε-(9-fluorenylmethoxycarbonyl)-L-lysine]", "Ki": 2320},
      {"smiles": "O=C(NCCCC[C@H](NS(=O)(=O)c1ccc([N+](=O)[O-])cc1)C(=O)O)OCC1c2ccccc2-c2ccccc21", "note": "[Compound 103, Nα-(4-Nitrobenzenesulfonyl)-Nε-(9-fluorenylmethoxycarbonyl)-L-lysine]", "Ki": 3300},
      {"smiles": "COc1ccc(S(=O)(=O)N[C@@H](CCCCNC(=O)OCC2c3ccccc3-c3ccccc32)C(=O)O)cc1", "note": "[Compound 104, Nα-(4-Methoxylbenzenesulfonyl)-Nε-(9-fluorenylmethoxycarbonyl)-L-lysine]", "Ki": 3160},
      {"smiles": "Nc1ccccc1S(=O)(=O)N[C@@H](CCCCNC(=O)OCC1c2ccccc2-c2ccccc21)C(=O)O", "note": "[Compound 105, Nα-(2-Aminobenzenesulfonyl)-Nε-(9-fluorenylmethoxycarbonyl)-L-lysine]", "Ki": 16000},
      {"smiles": "Nc1ccc(S(=O)(=O)N[C@@H](CCCCNC(=O)OCC2c3ccccc3-c3ccccc32)C(=O)O)cc1", "note": "[Compound 106, Nα-(4-Aminobenzenesulfonyl)-Nε-(9-fluorenylmethoxycarbonyl)-L-lysine]", "Ki": 4490},
      {"smiles": "O=C(NCCCC[C@H](NS(=O)(=O)c1ccccc1[N+](=O)[O-])C(=O)O)OCC1c2ccccc2-c2ccccc21", "note": "[Compound 107, Nα-(2-Nitrobenzenesulfonyl)-Nε-(9-fluorenylmethoxycarbonyl)-L-lysine]", "Ki": 3970},
      {"smiles": "COc1cccc(C=CC(=O)NCCCC[C@@H](C(=O)O)N(CC(C)C)S(=O)(=O)c2ccc([N+](=O)[O-])cc2)c1OC", "note": "[Compound 110, Nα-Isobutyl-Nα-(4-nitrobenzenesulfonyl)-Nε-(2,3-dimethoxycinnamoyl)-L-lysine]", "Ki": "> 300"},
      {"smiles": "COc1ccc(C=CC(=O)NCCCC[C@@H](C(=O)O)N(CC(C)C)S(=O)(=O)c2ccc([N+](=O)[O-])cc2)cc1", "note": "[Compound 113, Nα-Isobutyl-Nα-(4-nitrobenzenesulfonyl)-Nε-(4-methoxycinnamoyl)-L-lysine]", "Ki": "> 300"},
      {"smiles": "CC(C)CN([C@@H](CCCCNS(=O)(=O)Cc1ccccc1)C(=O)O)S(=O)(=O)c1ccc([N+](=O)[O-])cc1", "note": "[Compound 115, Nα-Isobutyl-Nα-(4-nitrobenzenesulfonyl)-Nε-benzylsulfonyl-L-lysine]", "Ki": "> 300"},
      {"smiles": "CC(C)CN([C@@H](CCCCNC(=O)CCc1cccc(N)c1)C(=O)O)S(=O)(=O)c1ccc(N)cc1", "note": "[Compound 118, Nα-Isobutyl-Nα-(4-aminobenzenesulfonyl)-Nε-(3-aminodihydrocinnamoyl)-L-lysine]", "Ki": 20.5}
    ]}
  ]
}
